Measured values as given in US5136080A, “Nitrile compounds” (Burroughs Wellcome Co., priority 1990, dated 1992).

Experiments:
[1] = tested on: veratrine-evoked release of glutamate from rat brain slices; assay: tissue or blood; type: cell-based; conditions: P95 limits in parentheses
Procedure: (§1) Compounds of Formula (I) were tested for their effect on veratrine-evoked release of glutamate from rat brain slices according to the protocol described in Epilepsia 27(5): 490-497, 1986. The protocol for testing for inhibition of DHFR activity was a modification of that set out in Biochemical Pharmacology Vol. 20 pp 561-574, 1971.

Rat Liver DHFR = molecular target: T1, Rat Liver DHFR (Rattus norvegicus, UniProt Q920D2); assay: biochemical; conditions: DHFR enzyme activity, P95 limits in parentheses
T1 sequence (Q920D2 1-187): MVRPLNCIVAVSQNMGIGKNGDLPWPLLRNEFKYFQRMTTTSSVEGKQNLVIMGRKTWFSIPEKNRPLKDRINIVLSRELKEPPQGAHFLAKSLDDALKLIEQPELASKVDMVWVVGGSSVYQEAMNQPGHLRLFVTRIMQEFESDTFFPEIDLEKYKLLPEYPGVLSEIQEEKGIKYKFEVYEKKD
Procedure: as §1

[2] = Toxicology, once daily intravenous administration to Wistar rats; conditions: rat, in vivo, dose levels of upto 15 mg/kg/day, read-out: no observed effect dose
Procedure: The compound of Example 1 has been administered intravenously to groups of six male and six female Wistar rats once daily at dose levels of upto 15 mg/kg/day. The no observed effect dose was 2.5 mg/kg/day.

Toxicology in rats = conditions: rat, in vivo, read-out: no observed effect dose
Procedure: (§2) The compound of Example 2, has been tested in both rats and dogs. In rats the no observed effect dose was 2.5 mg/kg/day and in dogs, the no observed effect dose was 14 mg/kg/day.

in vivo = assay: in vivo; parameters: species or system dogs; conditions: dog
Procedure: as §2

[3] = Duration of action / clearance from the central nervous system (statement); conditions: statement in words
[4] = tested on: release of the excitatory amino acid glutamate; conditions: statement in words; Leach et al Epilepsia 27, 490-497 1986; Miller et al 1987; cited from earlier work
[5] = tested on: release of the excitatory amino acid aspartate; conditions: statement in words; Leach et al Epilepsia 27, 490-497 1986; Miller et al 1987; cited from earlier work

Row | SMILES | IC50 [1] | IC50 (Rat Liver DHFR) | further results
1 | CN1CCN(c2nc(N)c(-c3cc(Cl)cc(Cl)c3Cl)c(C(F)(F)F)n2)CC1 [Example 1, 4-Amino-2-(4-methylpiperazin-1-yl)-5-(2,3,5-trichlorophenyl)-6-trifluoromethylpyrimidine] | 1.18 µM | > 100 µM | NOAEL [2]: 2.5 mg/kg/day
2 | COCc1nc(N)nc(N)c1-c1cc(Cl)cc(Cl)c1Cl [Example 2, 2,4-Diamino-5-(2,3,5-trichlorophenyl)-6-methoxymethylpyrimidine] | 0.56 µM | 33 µM | NOAEL (Toxicology in rats): 2.5 mg/kg/day; NOAEL (in vivo): 14 mg/kg/day; clearance from the central nervous system [3]: cleared from the central nervous system rapidly
3 | Nc1nc(N)c(-c2cc(Cl)cc(Cl)c2Cl)c(C(F)(F)F)n1 [Example 4, 2,4-Diamino-5-(2,3,5-trichlorophenyl)-6-trifluoromethylpyrimidine] | 0.33 µM | > 100 µM | –
4 | Nc1ncc(-c2cc(Cl)c([N+](=O)[O-])c(Cl)c2Cl)c(N)n1 [Example 5, 2,4-Diamino-5-(4-nitro-2,3,5-trichlorophenyl)pyrimidine] | 3.5 µM | ~100 µM | –
5 | Cc1nc(N)nc(N)c1-c1cc(Cl)cc(Cl)c1Cl [Example 6, 2,4-Diamino-5-(2,3,5-trichlorophenyl)-6-methylpyrimidine] | 0.7 µM | 0.51 µM | –
6 | Nc1nc(N2CCOCC2)nc(C(F)(F)F)c1-c1cc(Cl)cc(Cl)c1Cl [Example 7, 4-Amino-2-N-morpholino-5-(2,3,5-trichlorophenyl)-6-trifluoromethylpyrimidine] | < 10 µM | > 10 µM | –
7 | CN(C)c1nc(N)c(-c2cc(Cl)cc(Cl)c2Cl)c(C(F)(F)F)n1 [Example 8, 4-Amino-2-N,N-dimethylamino-5-(2,3,5-trichlorophenyl)-6-trifluoromethylpyrimidine] | < 10 µM | > 10 µM | –
8 | Nc1nc(N2CCOCC2)ncc1-c1cc(Cl)cc(Cl)c1Cl [Example 9, 4-Amino-2-N-morpholino-5-(2,3,5-trichlorophenyl)-pyrimidine] | < 10 µM | > 100 µM | –
9 | CN(C)c1ncc(-c2cc(Cl)cc(Cl)c2Cl)c(N)n1 [Example 10, 4-Amino-2-N,N-dimethylamino-5-(2,3,5-trichlorophenyl)pyrimidine] | < 10 µM | > 100 µM | –
10 | Cc1nc(N2CCN(C)CC2)nc(N)c1-c1cc(Cl)cc(Cl)c1Cl [Example 11, 4-Amino-6-methyl-2-(4-methylpiperazin-1-yl)-5-(2,3,5-trichlorophenyl)pyrimidine] | 4.8 µM | > 100 µM | –
11 | Cc1nc(N)nc(N)c1-c1cc(Cl)c([N+](=O)[O-])c(Cl)c1Cl [Example 12, 2,4-diamino-6-methyl-5-(2,3,5-trichloro-4-nitrophenyl) pyrimidine] | < 10 µM | > 100 µM | –
12 | Cc1nc(N(C)C)nc(N)c1-c1cc(Cl)cc(Cl)c1Cl [Example 13, 4-Amino-2-(N,N-dimethylamino)-6-methyl-5-(2,3,5-trichlorophenyl)pyrimidine] | < 10 µM | > 100 µM | –
13 | Nc1nc(N)c(-c2cccc(Cl)c2Cl)c(C(F)(F)F)n1 [Example 14, 2,4-Diamino-5-(2,3-dichlorophenyl)-6-trifluoromethylpyrimidine] | 3.1 µM | > 100 µM | –
14 | Cc1nc(N)nc(N)c1-c1cccc(Cl)c1Cl [Example 15, 2,4-Diamino-5-(2,3-dichlorophenyl)-6-methylpyrimidine] | 2.7 µM | 8.7 µM | –
15 | COCc1nc(N)nc(N)c1-c1cccc(Cl)c1Cl [Example 16, 2,4-Diamino-5-(2,3-dichlorophenyl)-6-methoxymethylpyrimidine] | 3.2 µM | > 100 µM | –
16 | Nc1ncc(-c2cccc3ccccc23)c(N)n1 [Example 17, 2,4-Diamino-5-(1-naphthyl)pyrimidine] | 2.4 µM | 4.9 µM | –
17 | Nc1nc(N)c(-c2cccc(Cl)c2Cl)c(CF)n1 [Example 18, 2,4-Diamino-5-(2,3-dichlorophenyl)-6-fluoromethylpyrimidine] | < 10 µM | ~100 µM | –
18 | Nc1nc(N)c(-c2cccc(Cl)c2Cl)c(COc2ccccc2)n1 [Example 19, 2,4-Diamino-5-(2,3-dichlorophenyl)-6-phenoxymethylpyrimidine] | 2.6 µM | > 100 µM | –
19 | CSCc1nc(N)nc(N)c1-c1cccc(Cl)c1Cl [Example 20, 2,4-Diamino-5-(2,3-dichlorophenyl)-6-methylthiomethylpyrimidine] | 4.2 µM | 17.5 µM | –
20 | Nc1ncc(-c2cccc(Cl)c2Cl)c(N)n1 [Example 21, 2,4-Diamino-5-(2,3-dichlorophenyl)pyrimidine] | 11.5 µM | 16 µM | –
21 | Cc1nc(N)nc(N)c1-c1ccccc1Cl [Example 22, 2,4-Diamino-5-(2-chlorophenyl)-6-methyl-pyrimidine] | 2.8 µM | 23.8 µM | –
22 | Nc1ncc(-c2ccccc2Cl)c(N)n1 [Example 23, 2,4-Diamino-5-(2-chlorophenyl)pyrimidine] | 8.7 µM | 20.9 µM | –
23 | CCc1nc(N)nc(N)c1-c1ccccc1Cl [Example 24, 2,4-Diamino-5-(2-chlorophenyl)-6-ethylpyrimidine] | 2.1 µM | 15.1 µM | –
24 | Nc1nc(N)c(-c2ccc(Cl)cc2Cl)c(C(F)(F)F)n1 [Example 25, 2,4-Diamino-5-(2,4-dichlorophenyl)-6-trifluoromethylpyrimidine] | 4.1 µM | > 100 µM | –
25 | Nc1nc(N)c(-c2ccc(Cl)cc2Cl)c(COCc2ccccc2)n1 [Example 26, 6-Benzyloxymethyl-2,4-diamino-5-(2,4-dichlorophenyl)pyrimidine] | ~3 µM | ~10 µM | –
26 | CN1CCN(c2ncc(-c3ccc(Cl)cc3Cl)c(N)n2)CC1 [Example 27, 2-(4-methylpiperazin-1-yl)-4-amino-5-(2,4-dichlorophenyl)pyrimidine] | ~10 µM | > 100 µM | –
27 | Nc1nc(N)c(-c2cc(Cl)ccc2Cl)c(C(F)(F)F)n1 [Example 28, 2,4-Diamino-5-(2,5-dichlorophenyl)-6-trifluoromethylpyrimidine] | 4.6 µM | 46.1 µM | –
28 | Nc1ncc(-c2cc(Cl)cc(Cl)c2Cl)c(N)n1 [Example 29, 2,4-Diamino-5-(2,3,5-trichlorophenyl)pyrimidine] | 1.57 µM | 0.53 µM | –
29 | Nc1nnc(-c2cccc(Cl)c2Cl)c(N)n1 [lamotrigine, 3,5-diamino-6-(2,3-dichlorophenyl)-1,2,4-triazine] | – | – | inhibition of the release of glutamate [4]: shown to inhibit the release; inhibition of the release of aspartate [5]: shown to inhibit the release
